Measurements: ChEMBL document CHEMBL3217680, “Synthesis and antiproliferative activity of some 3-(pyrid-2-yl)-pyrazolines” (Medchemcomm, 2013)
Active and inactive are the calls of the source. The calls are words filed in the database; no cut-off is given here.

Assays:
HT-29 [1] = assay: Inhibition of microtubule formation in human HT-29 cells at 5 uM using Dm1a tubulin antibodies by confocal microscopy; format: cell-based
Tubulin (Homo sapiens) [2] = target: T1, Tubulin (Homo sapiens) (UniProt P68371+Q9H4B7+P0DPH7+P68366+Q13509+Q71U36+P04350+Q3ZCM7+P07437+P68363+Q9BQE3+Q6PEY2+Q13885+Q9BVA1+Q9BUF5); assay: Inhibition of tubulin (unknown origin) polymerization at 20 uM; format: protein-complex assay
HT-29 [3] = assay: Cell cycle arrest in human HT-29 cells assessed as accumulation at G2/M phase at 5 uM by […]propidium iodide staining-based FACS analysis (reference value: 22.8 %); format: functional
HT-29 [4] = assay: Cell cycle arrest in human HT-29 cells assessed as accumulation at S phase at 5 uM by […]propidium iodide staining-based FACS analysis (reference value: 13.6 %); format: functional
HT-29 [5] = assay: Cell cycle arrest in human HT-29 cells assessed as accumulation at G1 phase at 5 uM by […]propidium iodide staining-based FACS analysis (reference value: 60.2 %); format: functional
HT-29 [6] = assay: Cell cycle arrest in human HT-29 cells assessed as accumulation at G2/M phase at 1 uM by […]propidium iodide staining-based FACS analysis (reference value: 22.8 %); format: functional
HT-29 [7] = assay: Cell cycle arrest in human HT-29 cells assessed as accumulation at S phase at 1 uM by […]propidium iodide staining-based FACS analysis (reference value: 13.6 %); format: functional
HT-29 [8] = assay: Cell cycle arrest in human HT-29 cells assessed as accumulation at G1 phase at 1 uM by […]propidium iodide staining-based FACS analysis (reference value: 60.2 %); format: functional
HT-29 [9] = assay: Cell cycle arrest in human HT-29 cells assessed as accumulation at G2/M phase at 100 nM by […]propidium iodide staining-based FACS analysis (reference value: 22.8 %); format: functional
HT-29 [10] = assay: Cell cycle arrest in human HT-29 cells assessed as accumulation at S phase at 100 nM by […]propidium iodide staining-based FACS analysis (reference value: 13.6 %); format: functional
HT-29 [11] = assay: Cell cycle arrest in human HT-29 cells assessed as accumulation at G1 phase at 100 nM by […]propidium iodide staining-based FACS analysis (reference value: 60.2 %); format: functional
MDA-MB-468 = assay: Growth inhibition of human MDA-MB-468 cells; format: functional
[12] = Growth inhibition of human BT549 cells; format: functional; settings: BT-549
T47D = assay: Growth inhibition of human T47D cells; format: functional
MCF7 = assay: Growth inhibition of human MCF7 cells; format: functional
MDA-MB-231 [13] = assay: Growth inhibition of human MDA-MB-231 cells; format: functional
[14] = Growth inhibition of human Hs 578T cells; format: functional
PC-3 = assay: Growth inhibition of human PC3 cells; format: functional
DU-145 = assay: Growth inhibition of human DU145 cells; format: functional
TK-10 = assay: Growth inhibition of human TK10 cells; format: functional
[15] = Growth inhibition of human UO31 cells; format: functional; settings: UO-31
CAKI-1 = assay: Growth inhibition of human CAKI-1 cells; format: functional
[16] = Growth inhibition of human RXF393 cells; format: functional; settings: RXF 393
SN12C = assay: Growth inhibition of human SN12C cells; format: functional
A498 = assay: Growth inhibition of human A498 cells; format: functional
ACHN = assay: Growth inhibition of human ACHN cells; format: functional
SK-OV-3 = assay: Growth inhibition of human SKOV3 cells; format: functional
786-0 = assay: Growth inhibition of human 786-0 cells; format: functional
[17] = Growth inhibition of human OVCAR5 cells; format: functional; settings: OVCAR-5
[18] = Growth inhibition of human OVCAR8 cells; format: functional; settings: OVCAR-8
[19] = Growth inhibition of human NCI-ADR-RES cells; format: functional
[20] = Growth inhibition of human OVCAR3 cells; format: functional; settings: OVCAR-3
[21] = Growth inhibition of human OVCAR4 cells; format: functional; settings: OVCAR-4
[22] = Growth inhibition of human UACC62 cells; format: functional; settings: UACC-62
IGROV-1 = assay: Growth inhibition of human IGROV1 cells; format: functional
SK-MEL-28 = assay: Growth inhibition of human SK-MEL-28 cells; format: functional
SK-MEL-5 = assay: Growth inhibition of human SK-MEL-5 cells; format: functional
[23] = Growth inhibition of human UACC257 cells; format: functional; settings: UACC-257
MDA-MB-435 = assay: Growth inhibition of human MDA-MB-435 cells; format: functional
SK-MEL-2 = assay: Growth inhibition of human SK-MEL-2 cells; format: functional
Malme-3M = assay: Growth inhibition of human MALME-3M cells; format: functional
M14 = assay: Growth inhibition of human M14 cells; format: functional
SNB-75 = assay: Growth inhibition of human SNB75 cells; format: functional
U-251 = assay: Growth inhibition of human U251 cells; format: functional
[24] = Growth inhibition of human LOXIMVI cells; format: functional; settings: LOX IMVI
[25] = Growth inhibition of human SF539 cells; format: functional; settings: SF-539
SNB-19 = assay: Growth inhibition of human SNB19 cells; format: functional
SF-268 = assay: Growth inhibition of human SF268 cells; format: functional
SW-620 = assay: Growth inhibition of human SW620 cells; format: functional
HT-29 [26] = assay: Growth inhibition of human HT-29 cells; format: functional
KM12 = assay: Growth inhibition of human KM12 cells; format: functional
[27] = Growth inhibition of human HCT15 cells; format: functional; settings: HCT-15
HCT-116 = assay: Growth inhibition of human HCT116 cells; format: functional
[28] = Growth inhibition of human HCC2998 cells; format: functional; settings: HCC 2998
COLO 205 = assay: Growth inhibition of human COLO205 cells; format: functional
NCI-H322M = assay: Growth inhibition of human NCI-H322M cells; format: functional
NCI-H460 = assay: Growth inhibition of human NCI-H460 cells; format: functional
NCI-H522 = assay: Growth inhibition of human NCI-H522 cells; format: functional
NCI-H226 = assay: Growth inhibition of human NCI-H226 cells; format: functional
NCI-H23 = assay: Growth inhibition of human NCI-H23 cells; format: functional
[29] = Growth inhibition of human EKVX cells; format: functional
HOP-62 = assay: Growth inhibition of human HOP62 cells; format: functional
[30] = Growth inhibition of human HOP92 cells; format: functional; settings: HOP-92
SR = assay: Growth inhibition of human SR cells; format: functional
A549 = assay: Growth inhibition of human A549/ATCC cells; format: functional
RPMI-8226 = assay: Growth inhibition of human RPMI8226 cells; format: functional
[31] = Growth inhibition of human MOLT4 cells; format: functional; settings: MOLT-4
HL-60(TB) = assay: Growth inhibition of human HL-60(TB) cells; format: functional
CCRF-CEM = assay: Growth inhibition of human CCRF-CEM cells; format: functional
MDA-MB-231 [32] = assay: Antiproliferative activity against human MDA-MB-231 cells by MTS assay; format: functional, cell-based
HT-29 [33] = assay: Antiproliferative activity against human HT-29 cells by MTS assay; format: functional, cell-based
HT-29 [34] = assay: Inhibition of microtubule formation in human HT-29 cells at 100 nM using Dm1a tubulin antibodies by confocal microscopy; format: cell-based
Tubulin (Homo sapiens) [35] = target: T1, Tubulin (Homo sapiens); assay: Induction of tubulin (unknown origin) polymerization at 5 uM; format: protein-complex assay

COc1cc(C(=O)N2N=C(c3ccccn3)C[C@@H]2c2ccccc2)cc(OC)c1OC
inhibition (HT-29 [1]): Active
inhibition (Tubulin (Homo sapiens) [2]): Active
Activity (HT-29 [3]): 94.8%
Activity (HT-29 [4]): 2%
Activity (HT-29 [5]): 2.3%
Activity (HT-29 [6]): 49.7%
Activity (HT-29 [7]): 10.3%
Activity (HT-29 [8]): 38.5%
Activity (HT-29 [9]): 88.8%
Activity (HT-29 [10]): 2.8%
Activity (HT-29 [11]): 7.9%
GI50 (MDA-MB-468): 417 nM
GI50 [12]: 5130 nM
GI50 (T47D): > 100000 nM
GI50 (MCF7): 324 nM
GI50 (MDA-MB-231 [13]): 989 nM
GI50 [14]: 9180 nM
GI50 (PC-3): > 100000 nM
GI50 (DU-145): 4260 nM
GI50 (TK-10): > 100000 nM
GI50 [15]: 5010 nM
GI50 (CAKI-1): 493 nM
GI50 [16]: 1030 nM
GI50 (SN12C): 3530 nM
GI50 (A498): 943 nM
GI50 (ACHN): 4290 nM
GI50 (SK-OV-3): 762 nM
GI50 (786-0): 1540 nM
GI50 [17]: 4010 nM
GI50 [18]: 3280 nM
GI50 [19]: 519 nM
GI50 [20]: 719 nM
GI50 [21]: 5950 nM
GI50 [22]: 541 nM
GI50 (IGROV-1): 7130 nM
GI50 (SK-MEL-28): 1510 nM
GI50 (SK-MEL-5): 432 nM
GI50 [23]: > 100000 nM
GI50 (MDA-MB-435): 273 nM
GI50 (SK-MEL-2): 699 nM
GI50 (Malme-3M): > 100000 nM
GI50 (M14): 801 nM
GI50 (SNB-75): 277 nM
GI50 (U-251): 868 nM
GI50 [24]: 1130 nM
GI50 [25]: 1060 nM
GI50 (SNB-19): 1890 nM
GI50 (SF-268): 33400 nM
GI50 (SW-620): 567 nM
GI50 (HT-29 [26]): 431 nM
GI50 (KM12): 711 nM
GI50 [27]: 848 nM
GI50 (HCT-116): 586 nM
GI50 [28]: 2320 nM
GI50 (COLO 205): 585 nM
GI50 (NCI-H322M): > 100000 nM
GI50 (NCI-H460): 505 nM
GI50 (NCI-H522): 688 nM
GI50 (NCI-H226): 1330 nM
GI50 (NCI-H23): 3450 nM
GI50 [29]: > 100000 nM
GI50 (HOP-62): 1820 nM
GI50 [30]: > 100000 nM
GI50 (SR): 415 nM
GI50 (A549): 952 nM
GI50 (RPMI-8226): 66300 nM
GI50 [31]: 4460 nM
GI50 (HL-60(TB)): 747 nM
GI50 (CCRF-CEM): 2080 nM
IC50 (MDA-MB-231 [32]): 690 nM
IC50 (HT-29 [33]): 2530 nM

COc1cc2c(c(OC)c1OC)-c1ccc(OC)c(=O)cc1[C@@H](NC(C)=O)CC2 [COLCHICINE]
inhibition (HT-29 [34]): Active
IC50 (MDA-MB-231 [32]): 8 nM
IC50 (HT-29 [33]): 8 nM

COc1cc(C(=O)N2N=C(c3ccccn3)CC2c2cc(OC)c(OC)c(OC)c2)cc(OC)c1OC (configuration not stated)
IC50 (MDA-MB-231 [32]): 11400 nM
IC50 (HT-29 [33]): 22500 nM

CN1N=C(c2ccccn2)CC1c1ccccc1 (configuration not stated)
IC50 (MDA-MB-231 [32]): 135000 nM
IC50 (HT-29 [33]): 116000 nM

COc1cc(/C=C/C(=O)c2ccccn2)cc(OC)c1OC
IC50 (MDA-MB-231 [32]): 9700 nM
IC50 (HT-29 [33]): 9600 nM

COc1cc(C2CC(c3ccccn3)=NN2C(C)=O)cc(OC)c1OC (configuration not stated)
IC50 (MDA-MB-231 [32]): 52500 nM
IC50 (HT-29 [33]): > 500000 nM

NC(=S)N1N=C(c2ccccn2)C[C@H]1c1ccccc1
IC50 (MDA-MB-231 [32]): 140000 nM
IC50 (HT-29 [33]): 350000 nM

O=C(N1N=C(c2ccccn2)CC1c1ccccc1)C(F)(F)F (configuration not stated)
IC50 (MDA-MB-231 [32]): > 500000 nM
IC50 (HT-29 [33]): > 500000 nM

CNC(=S)N1N=C(c2ccccn2)C[C@H]1c1ccccc1
IC50 (MDA-MB-231 [32]): 20700 nM
IC50 (HT-29 [33]): 25600 nM

CC(=O)O[C@H]1C(=O)[C@@]2(C)[C@H]([C@H](OC(=O)c3ccccc3)[C@]3(O)C[C@H](OC(=O)[C@H](O)[C@@H](NC(=O)c4ccccc4)c4ccccc4)C(C)=C1C3(C)C)[C@]1(OC(C)=O)CO[C@@H]1C[C@@H]2O
Activity (Tubulin (Homo sapiens) [35]): Active

O=C(c1ccccc1)N1N=C(c2ccccn2)C[C@H]1c1ccccc1
IC50 (MDA-MB-231 [32]): > 500000 nM
IC50 (HT-29 [33]): > 500000 nM

CC(=O)N1N=C(c2ccccn2)CC1c1ccccc1 (configuration not stated)
IC50 (MDA-MB-231 [32]): 294000 nM
IC50 (HT-29 [33]): 161000 nM

c1ccc(C2CC(c3ccccn3)=NN2c2ccccc2)cc1 (configuration not stated)
IC50 (MDA-MB-231 [32]): 60200 nM
IC50 (HT-29 [33]): 53800 nM

COc1cc(C2CC(c3ccccn3)=NN2c2ccccc2)cc(OC)c1OC (configuration not stated)
IC50 (MDA-MB-231 [32]): 4360 nM
IC50 (HT-29 [33]): 26200 nM
